Assay results from US12186435B2, “Sol-gel/hydrogel therapeutic delivery system and methods thereof” (ALBERT EINSTEIN COLLEGE OF MEDICINE, priority 2017, dated 2025).
Entries after “also recorded” stand apart in the source; their conditions may differ.

Legend:
[1] = Evans Blue release from particles in water; format: physicochemical; conditions: for release from amine (APTS) doped particles: hydrogel doped with amine groups
Protocol: FIGS. 18A-18B. Curcumin (A) and (B) Evans Blue APTS doped gels. The gels were doped with 0.3% APTS. Rate of condensation changed by mM NaOH concentration (75, 60, 30, 12) added prior to condensation step. Increasing gel times for decreasing amount of added NaOH: (2 mins, 30 mins, 15 hours, 1.5 days: 75, 60, 30, 12 mM NaOH). Curcumin release in ethanol; Evans blue release in water. Both plots from top to bottom, respectively, at left side of plots: 75 mM, 60 mM, 30 mM and 12 mM.
Amines are incorporated by mixing hydrolyzed APTS with hydrolyzed TMOS. The resulting sol-gel monolith is loaded with the water soluble dye Evans Blue which has four negatively charged groups.

[2] = Release of NACSNO and GSNO from particles into aqueous buffer; format: physicochemical; conditions: for release from original rapid gelation platform: deliverable added before condensation, aqueous buffer
[3] = in methanol
[4] = Release of fluorescent labeled lipids from Br1 particles, with or without 3% octyl-TMOS doping; format: physicochemical
Text: FIG. 13. Effects of doping del with 3% octyl-TMOS on release of lipids. Plots from top to bottom, respectively: Cholesterol-BDP, Chol/3% Octyl, Palmitate-NBD, and Palm/3% Octyl.
Fluorescent labeled cholesterol and palmytic acid were used to show both loading and release. Procyanidine is a potent antioxidant that is being evaluated for use in the treatment of osteoarthritis.
Effects of Doping Del with 3% Octyl-TMOS on Release of Lipids (FIG. 13)
3% octyl doped gel changed cholesterol release(from 80% released down to 55% released), but had no effect on palmitate release.

[5] = Curcumin release from particles into ethanol or methanol; format: physicochemical
Text: FIG. 2. A comparison of release profiles form curcumin loaded nanoparticles. “Brinker” (Br) is the high-density sol-gel that took 7 days to gel and curcumin added after the gelation is complete. “9d dry” is the original formulation air dried for 9 days. Release is of suspended particles into ethanol or methanol. Plots from top to bottom, respectively: EtOH original, EtOH 9d dry, MeOH Brinker, and EtOH Brinker.
Release from Nanoparticles was Made Via: • the Br(Brinker) method where the curcumin is loaded into the empty Br sol-gel block (slow gelation protocol), • The original hydrogel platform where the curcumin is mixed in the initial pre-condensation mixture which gels much more rapidly than the Br sol-gels, • Curcumin loaded in the original fast gelling platform but the resulting curcumin containing sol-gel is air dried for nine days (to promote enhanced density-decreasing pore size.
The effect of added PEG400 on release rates of NACSNO (SNO derivative of N-acetylcysteine) and curcumin from nanoparticles generated using the new block gel protocol (Universal Drug Delivery Platform). • New protocol in which NACSNO and curcumin are infused into a gel block prepared from TMOS using the standard Brinker method for gelation. Once the gel is loaded with the deliverables, the gel is lyophilized and then milled to produce the loaded nanoparticles. • Four separate gels are prepared for each of the deliverables • One gel has no added PEG whereas the other three have varying amounts of added PEG400. The percentage of added PEG shown in the figures refers to the percentage of PEG added compared to what was added in our original protocol.

[6] = gel block doped with octyl group

SMILES: Cc1cc(-c2ccc(/N=N/c3ccc4c(S(=O)(=O)O)cc(S(=O)(=O)O)c(N)c4c3O)c(C)c2)ccc1/N=N/c1ccc2c(S(=O)(=O)O)cc(S(=O)(=O)O)c(N)c2c1O [Evans Blue]
- effect of increasing addition of base prior to condensation on release ([1]; Br sol-gels doped with APTS): increase in release
- release from amine (APTS) doped particles [1]: slowed by several orders or magnitude; also recorded: substantially slows release
- release from amine (APTS) doped particles ([1]; listed as Evans blue): slows
- release from undoped particles ([1]; without amine doping, aqueous environment): immediate and complete; also recorded: near instantaneous

SMILES: N[C@@H](CCC(=O)N[C@@H](CSN=O)C(=O)NCC(=O)O)C(=O)O [GSNO, S-nitrosothiol-GSH]
- release from original rapid gelation platform [2]: rapid release
- stability in original rapid gelation platform ([2]; prepared in original rapid gelation platform): unstable

SMILES: CC(=O)N[C@@H](CSN=O)C(=O)O [NACSNO, S-nitrosoN-acetylcysteine]
- release from original rapid gelation platform [2]: almost immediate release
- effect of octyl group doping on release [2, 6]: slows release

SMILES: COc1ccc2cc([C@H](C)C(=O)O)ccc2c1 [Naproxen]
- release from new protocol nanoparticles [3]: slow release

SMILES: CC(C)CCC[C@@H](C)[C@H]1CC[C@H]2[C@@H]3CC=C4C[C@@H](O)CC[C@]4(C)[C@H]3CC[C@]12C [cholesterol]
- cholesterol release, released ([4]; 3% octyl doped gel): 55%
- cholesterol release, released ([4]; gel without octyl doping (Br1)): 80%

SMILES: COc1cc(/C=C/C(=O)CC(=O)/C=C/c2ccc(O)c(OC)c2)ccc1O [curcumin, Curcumin]
- effect of increasing addition of base prior to condensation on release ([5]; Br sol-gels doped with APTS): increase in release
- effect of octyl group doping on release [5, 6]: slows release
- effect of APTS on release ([5]; slow gel, >1 day to form): increased
- release compared to the original platform and its air dried version ([5]; slow gelling Br protocol, curcumin loaded after gelation): dramatic slow down in release
- effect of increasing pH in condensation step on release ([5]; sol-gel doped with 25% PEG400, release in ethanol): increases release

SMILES: CCCCCCCCCCCCCCCC(=O)O [palmitate]
- effect of 3% octyl doping on release ([4]; 3% octyl doped gel vs undoped): no effect
